Series [1] deals with non-transformed African Green Monkey kidney epithelial (BSC-1) cells. Description: Mitogenic response of BSC-1 cells (cell number counted in a hemocytometer after 4 days). The format is cell-based. As to conditions: for mitogenic activity of excipient without NX001: 20 mM histidine or 8.8% sucrose, alone or together, diluted 160-fold, FIG. 3A. On the procedure:
Various lots of unformulated NX001 can be assayed for bioactivity using the mitogenic response of BSC-1 cells as an indicator (see, for instance, U.S. Pat. No. 6,096,706). In this example, two lots of NX001 peptide (Lots PPL-WGF0501A and lot PPL WGF0801) were tested. Varying amounts of the two peptides were added to near-confluent monolayers of non-transformed African Green Monkey kidney epithelial (BSC-1) cells, and the number of cells was counted in a hemocytometer 4 days later.
Each formulation was reconstituted with 1.0 mL water, and was swirled to dissolve the contents. Each solution was then be diluted to 0.125 mg/mL with water. Aliquots of 8 μL each was added to triplicate wells of BSC-1 cells to yield final concentrations of NX001 from 0.05 to 0.4 μg/mL. The plates were incubated at 37° C. for 4 days, and then cells was counted. A third lot of NX001 (PPL-WGF0801) that is not formulated and not lyophilized was dissolved and diluted in water and was used as positive control.
To investigate whether excipients alone or in combination might modify the mitogenic activity, NX001 was added to 20 mM histidine, 8.8% sucrose or the combination and the solutions were diluted to 0.125 mg/mL. Each of the near confluent monolayers of BSC-1 cells in 5 ml DMEM containing 40 μM biotin and 0.5% calf serum received either 8 μl of water, 8 μl of an excipient, or 0.2 μg/ml of PPL-WGF0801 in a final volume of 8 μl of 8.8% sucrose or 20 mM histidine (pH 5.5), or both.
An experiment to determine whether the pH of formulated NX001 affected bioactivity was performed. In this experiment, NX001 (lot PPLWGF0801) was used as a positive control and was dissolved in water to […], diluted 1/160 with water to 0.125 mg/mL, and 8 μL was added to assay plates to a final concentration of 0.2 μg/mL. (see FIG. 4, bar 1).
NX001 (lot PPLWGF0801) was dissolved to 20 mg/mL in either water or PBS, diluted to 0.125 mg/mL in water or PBS as specified, and 8 μL was then added to assay plates to a final concentration of […].
To insure that formulation of NX001 yielded a solution for injection that was as physiological as possible, the formulation of NX001 was adjusted to provide a neutral, iso-osmotic preparation. The adjusted formulation contains 20 mg/mL NX001, 20 mM histidine, 200 mM sucrose at a pH of 7.25, or 80 mg/mL NX001, 20 mM histidine, 15 mM sucrose, pH 7.25. Vials of formulated and lyophilized NX001 at either 80 mg/mL or 20 mg/mL were reconstituted with 1 mL water and diluted to […] before bioassay.

Series [2] is described as follows: pH of histidine/sucrose solutions after addition of NX001. As to conditions: 20 mM histidine. In kind it is physicochemical. The procedure:
Next, 20 mM histidine, containing 8.8% sucrose was prepared and the pH was adjusted to 5.5 with HCl. Similarly, additional solutions of 20 mM histidine containing 8.8% sucrose were prepared and the pH was adjusted to 7.5 and 9.0. These solutions were diluted 1/160 and 8 μL aliquots added to plates of BSC-1 cells. As shown in FIG. 4 (bars 2, 3, 4), the solutions were not mitogenic themselves. NX001 was dissolved in each of solution to 0.125 mg/mL.

Series [3] can be described thus: Stability of neutral lyophilized NX001 formulation, 12 months storage. The format is physicochemical. The procedure:
The stability of NX001 formulations was also evaluated. The stability of a lot of NX001 was monitored for 12 months at storage temperatures of 5° C. and 25° C. Appearance of lyophilized cake, reconstitution time, appearance of the reconstituted solution, pH, identity of the peptide, potency and purity of the peptide, and residual moisture were evaluated.
The evaluated parameters of neutral formulations of NX001 were not changed following 12 months storage at temperatures of 5° C. and 25° C.

[4] abbreviates: 5° C., After 12 months of storage.
Where [5] appears, read: 25° C., After 12 months of storage.

The source of these data is patent publication US20140287995A1, “STABLE PHARMACEUTICAL FORMULATIONS OF GROWTH FACTOR PEPTIDES” (THE UNIVERSITY OF CHICAGO, priority 2011, published 2014).

`N[C@@H](Cc1c[nH]cn1)C(=O)O` [histidine]: the “mitogenic activity of excipient without NX001” value in series [1] was “did not exhibit mitogenic activity”.

For the compound `OC[C@H]1O[C@@](CO)(O[C@H]2O[C@H](CO)[C@@H](O)[C@H](O)[C@H]2O)[C@@H](O)[C@@H]1O` [sucrose], the “mitogenic activity of excipient without NX001” value in series [1] is “did not exhibit mitogenic activity”.

As to “AQPYPQGNHEASYG [NX001, growth factor peptide designated NX001; PPL-WGF codes are lots of it]”, the cell growth entry in series [1] (NX001 0.2 μg/mL added separately from histidine/sucrose solutions of pH 5.5, 7.5, 9.0, FIG. 4 bars 8, 9, 10) is listed as “increased cell growth to the same extent as the positive control alone”. The growth-promoting activity result is “abolished” in series [1] (NX001 0.2 μg/ml in the presence of 20 mM histidine (pH 5.5) alone, FIG. 3B) and “abolished” in series [1] (NX001 0.2 μg/ml in the presence of histidine plus sucrose, FIG. 3B). Besides, the “increase in cell number” value in series [1] (NX001 0.2 μg/ml in the presence of 8.8% sucrose, FIG. 3B) is on record as 23%; in series [1] (NX001 alone, 0.2 μg/ml, FIG. 3B) it was 36%; in series [1] (NX001 dissolved in PBS and diluted in water, 0.125 μg/mL, FIG. 5 bar 4) it was “increased cell number by the same amount”; in series [1] (NX001 dissolved in histidine/sucrose and diluted in PBS (pH 7.25), FIG. 5 bar 7) it was more than 24%; in series [1] (lot PPL-WGF0501A dissolved in PBS immediately before assay, FIG. 6 closed circles), approximately 30%. Moreover, in series [1] (NX001 dissolved and diluted in water, 0.125 μg/mL, FIG. 5 bar 3), the “increase in growth of BSC-1 cells” value came to 24%. For the same compound, the mitogenicity result in series [1] (NX001 dissolved in 20 mM histidine, 8.8% sucrose, resulting pH <5.0, ~5.5, ~6.5, not neutralized, FIG. 4 bars 5, 6, 7) is on record as “not mitogenic”; in series [1] (NX001 in 20 mM histidine, 8.8% sucrose neutralized with NaOH to pH 7.5 before dilution in water, FIG. 4 bars 11, 12, 13) it was “mitogenic to the same extent as the positive control”; in series [1] (formulated at 20 mg/mL in 20 mM histidine, 254 mM sucrose, pH 6.5, lyophilized, reconstituted with water, 0.05 to 0.4 μg/mL, FIG. 2) it was “not mitogenic”. Also, the mitogenic activity result was “inactive” in series [1] (NX001 dissolved in histidine/sucrose (final pH 5.5), diluted in water, FIG. 5 bar 5); “active” in series [1] (NX001 dissolved in histidine/sucrose, neutralized with NaOH to pH 7.5, diluted in water, FIG. 5 bar 6); “active” in series [1] (lot PPL-WGF0501A dissolved in 20 mM histidine, 200 mM sucrose, pH 7.25 immediately before assay, FIG. 6 open circles). Further, the maximal mitogenic response in series [1] (unformulated NX001 peptide lots, BSC-1 cells, FIG. 1) is reported as approximately 26%. Also, the “pH of solution after dissolving NX001” value in series [2] (8.8% sucrose adjusted to pH 5.5 before NX001) is less than 5.0; in series [2] (8.8% sucrose adjusted to pH 7.5 before NX001), approximately 5.5; in series [2] (8.8% sucrose adjusted to pH 9.0 before NX001), approximately 6.5. Besides, the Cake appearance result in series [3] (setting [4]) is reported as “White cake”; in series [3] (5° C., Initial), “White cake”; in series [3] (setting [5]), “White cake”; in series [3] (25° C., Initial), “White cake”. In addition, the “Potency (% of NX001 recovered in main peak compared to stated vial concentration)” value in series [3] (setting [4]) is on record as 99.6%; in series [3] (5° C., Initial), 102%; in series [3] (setting [5]), 97.9%; in series [3] (25° C., Initial), 102%. In addition, the Purity is 98.8% in series [3] (setting [4]); 98.8% in series [3] (5° C., Initial); 98.4% in series [3] (setting [5]); 98.8% in series [3] (25° C., Initial). The Reconstituted appearance result in series [3] (setting [4]) is listed as “Clear, colorless”; in series [3] (5° C., Initial) it was “Clear, colorless”; in series [3] (setting [5]) it was “Clear, colorless”; in series [3] (25° C., Initial), “Clear, colorless”. The Reconstitution time came out at 64 s in series [3] (setting [4]); 45 s in series [3] (5° C., Initial); 72 s in series [3] (setting [5]); 45 s in series [3] (25° C., Initial). Besides, the Residual moisture in series [3] (setting [4]) is listed as 0.80%; in series [3] (5° C., Initial), 0.71%; in series [3] (setting [5]), 1.05%; in series [3] (25° C., Initial) it was 0.71%. The Total % impurities in series [3] (setting [4]) is reported as 1.2%; in series [3] (5° C., Initial) it was 1.2%; in series [3] (setting [5]), 1.6%; in series [3] (25° C., Initial), 1.2%. Moreover, the pH in series [3] (setting [4]) came out at 7.2; in series [3] (5° C., Initial), 7.2; in series [3] (setting [5]), 7.3; in series [3] (25° C., Initial), 7.2.

“gly-tyr-glu-ser-pro-ala-his-gly-tyr-gln-ala-pro-asn-gln (GYESPAHGYQAPNQ) [Scrambled NX001 peptide, 14-amino acid peptide including the same amino acids as NX001, but in scrambled order, reference compound]”: the “promotion of cell growth” value in series [1] (FIG. 6 closed squares) was “did not promote cell growth”.
